Source: US20240058422A1, “GLUCAGON-LIKE PEPTIDE-1 RECEPTOR ANTAGONISTS” (INDIANA UNIVERSITY RESEARCH AND TECHNOLOGY CORPORATION, priority 2022, published 2024)
Values after ≈ are worked out from the molar mass of the structure shown. Starred links: 1 amine or outer side, 2 acyl side, 3 side chain; linkers in the order of their positions; H or OH if unused. Residues, ends and D or L forms follow the SMILES beside them. Groups on a side chain read outwards from the residue. *: point of attachment. γGlu = O=C(O)[C@H](CCC(=O)[*:2])N[*:1]; Palmitoyl = CCCCCCCCCCCCCCCC(=O)*; AEEA = NCCOCCOCC(=O)O

Key:
GLP-1R = GLP-1R (Homo sapiens, UniProt P43220); experiment: GLP-1 receptor-mediated cAMP induction, luciferase reporter gene antagonism assay; assay type: cell-based; set-up: host or cells: HEK 293; settings: Table 3; amino acid substitution variants of Jant4-K40; antagonism of 0.05 nM GLP-1, HEK 293 cells; read-out: Bioactivity IC50
In short: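 HEK 293 cells cotransfected with human GLP-1 receptor and CRE-luciferase were serum-deprived 16 h, then given serial peptide dilutions followed by 0.05 nM GLP-1 and incubated 5 h at 37° C.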

physchem = settings: pH 7.7, Solubility 80 mM AmeBicarb pH7.7

Chain of GLP-1R (P43220 24-463): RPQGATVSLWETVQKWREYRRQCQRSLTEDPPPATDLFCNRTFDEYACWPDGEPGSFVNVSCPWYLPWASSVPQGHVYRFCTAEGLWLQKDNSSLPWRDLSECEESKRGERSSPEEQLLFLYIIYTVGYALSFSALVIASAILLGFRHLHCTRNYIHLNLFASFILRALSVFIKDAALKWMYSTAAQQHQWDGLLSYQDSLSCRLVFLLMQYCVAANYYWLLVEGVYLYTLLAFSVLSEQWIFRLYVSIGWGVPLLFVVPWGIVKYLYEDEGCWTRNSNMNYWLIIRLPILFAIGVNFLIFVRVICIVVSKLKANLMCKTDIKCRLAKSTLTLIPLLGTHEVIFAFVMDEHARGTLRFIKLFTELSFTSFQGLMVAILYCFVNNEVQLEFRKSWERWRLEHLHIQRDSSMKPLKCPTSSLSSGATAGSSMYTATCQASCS

Row | SMILES | IC50 (GLP-1R) [nM] | solubility (physchem) [mg/mL]
1 | CCCCCCCCCCCCCCCC(=O)N[C@@H](CCC(=O)NCCOCCOCC(=O)NCCCC[C@H](NC(=O)[C@H](CO)NC(=O)[C@@H]1CCCN1C(=O)[C@@H]1CCCN1C(=O)[C@@H]1CCCN1C(=O)[C@H](C)NC(=O)CNC(=O)[C@H](CO)NC(=O)[C@H](CO)NC(=O)[C@@H]1CCCN1C(=O)CNC(=O)CNC(=O)[C@H](CCCNC(=N)N)NC(=O)[C@@H](NC(=O)[C@H](CC(C)C)NC(=O)[C@H](Cc1c[nH]c2ccccc12)NC(=O)[C@H](CCC(=O)O)NC(=O)[C@@H](NC(=O)[C@H](Cc1ccccc1)NC(=O)[C@H](CCC(=O)O)NC(=O)[C@H](CCCNC(=N)N)NC(=O)[C@@H](NC(=O)[C@H](C)NC(=O)[C@H](CCC(N)=O)NC(=O)[C@H](CCC(=O)O)NC(=O)[C@H](CCC(=O)O)NC(=O)[C@H](CC(C)C)NC(=O)[C@H](Cc1ccc(O)cc1)NC(=O)[C@H](CO)NC(=O)[C@H](CO)NC(=O)[C@@H](NC(=O)[C@@H](N)CC(=O)O)C(C)C)C(C)C)[C@@H](C)CC)C(C)C)C(=O)O)C(=O)O [compound 78] (H-DVSSYLEEQAVREFIEWLVRGGPSSGAPPPSK([AEEA-γGlu-Palmitoyl])-OH; N-terminus assumed) | 19 | > 20
2 | CCCCCCCCCCCCCCCC(=O)NCCCC[C@H](NC(=O)[C@H](CO)NC(=O)[C@@H]1CCCN1C(=O)[C@@H]1CCCN1C(=O)[C@@H]1CCCN1C(=O)[C@H](C)NC(=O)CNC(=O)[C@H](CO)NC(=O)[C@H](CO)NC(=O)[C@@H]1CCCN1C(=O)CNC(=O)CNC(=O)[C@H](CCCNC(=N)N)NC(=O)[C@@H](NC(=O)[C@H](CC(C)C)NC(=O)[C@H](Cc1c[nH]c2ccccc12)NC(=O)[C@H](C)NC(=O)[C@@H](NC(=O)[C@H](Cc1ccccc1)NC(=O)[C@H](CCC(=O)O)NC(=O)[C@H](CCCNC(=N)N)NC(=O)[C@@H](NC(=O)[C@H](C)NC(=O)[C@H](CCC(N)=O)NC(=O)[C@H](CCC(=O)O)NC(=O)[C@H](CCC(=O)O)NC(=O)[C@H](CC(C)C)NC(=O)[C@H](Cc1ccc(O)cc1)NC(=O)[C@H](CO)NC(=O)[C@H](CO)NC(=O)[C@@H](NC(=O)[C@@H](N)CC(=O)O)C(C)C)C(C)C)[C@@H](C)CC)C(C)C)C(N)=O [compound 69] (H-DVSSYLEEQAVREFIAWLVRGGPSSGAPPPSK(Palmitoyl)-NH2) | 16 | 13.7 (≈ 3.73 mM)
3 | CCCCCCCCCCCCCCCC(=O)N[C@@H](CCC(=O)NCCOCCOCC(=O)NCCCC[C@H](NC(=O)[C@H](CO)NC(=O)[C@@H]1CCCN1C(=O)[C@@H]1CCCN1C(=O)[C@@H]1CCCN1C(=O)[C@H](C)NC(=O)CNC(=O)[C@H](CO)NC(=O)[C@H](CO)NC(=O)[C@@H]1CCCN1C(=O)CNC(=O)CNC(=O)[C@H](CCCNC(=N)N)NC(=O)[C@@H](NC(=O)[C@H](CC(C)C)NC(=O)[C@H](Cc1c[nH]c2ccccc12)NC(=O)[C@H](CCC(=O)O)NC(=O)[C@@H](NC(=O)[C@H](Cc1ccccc1)NC(=O)[C@H](CCC(=O)O)NC(=O)[C@H](CCCNC(=N)N)NC(=O)[C@@H](NC(=O)[C@H](C)NC(=O)[C@H](CCC(N)=O)NC(=O)[C@H](CCC(=O)O)NC(=O)[C@H](CCC(=O)O)NC(=O)[C@H](CC(C)C)NC(=O)[C@H](Cc1ccc(O)cc1)NC(=O)[C@H](CCCNC(=N)N)NC(=O)[C@H](CO)NC(=O)[C@@H](NC(=O)[C@@H](N)CC(=O)O)C(C)C)C(C)C)[C@@H](C)CC)C(C)C)C(=O)O)C(=O)O [compound 16] (H-DVSRYLEEQAVREFIEWLVRGGPSSGAPPPSK([AEEA-γGlu-Palmitoyl])-OH; N-terminus assumed) | 18 | > 20
